Test results: PMC10380841, “Synthesis, Characterization and Cytotoxic Evaluation of New Pyrrolo[1,2-b]pyridazines Obtained via Mesoionic Oxazolo-Pyridazinones” (International Journal of Molecular Sciences, 2023)
Entries after “also recorded” stand apart in the source; their conditions may differ. Where two headings read alike, the source gives them in different places.

Tests used:
[1] = system: Triticum vulgare root tips; assay: Microscopic examination of Triticum root tips (mitotic film changes); format: in vivo; details: 1000 μM, 24 h contact
Description: Microscopic examination of Triticum vulgare root tips followed the mitotic film changes induced by the tested compounds. Observations were made after 24 h of contact of the caryopses with the test solutions. The study was made in comparison with DMSO control maintained under the same conditions as the samples. To obtain microscopic preparations, sectioning of wheat embryonic roots was carried out at about 5 mm from the tip and stained with dilute […] according to the La Cour procedure. The examination was conducted on a Euromex oxion series 110–240 V/50–60 Hz microscope with digital camera CEMEX 5 DC 5000 C and 40× and 100× lenses with cedar oil immersion (Sigma-Aldrich St. Louis, MO, USA).

[2] = system: SK-OV-3 ovary adenocarcinoma cells; assay: MTS cytotoxicity assay, SK-OV-3; format: cell-based, human; details: Homo sapiens
Description: (§1) Therefore, the precursor acids 2a–c and corresponding pyrrolo[1,2-b]pyridazines 5a–c,f were tested for their potential cytotoxic activity. During the assays, increasing concentrations of the compounds, ranging from […], were added for 24 h or 48 h to cancer LoVo, SK-OV-3, MCF-7, and the reference HUVEC cells, previously cultured for 24 h in 96-well flat bottom plates. […] Then, MTS reagent was added, and cells were incubated for 4 h at 37 °C in a 5% CO2 humidified atmosphere. The absorbance values were spectrophotometrically read to a Dynex ELISA reader at λ = […].
(§2) For the evaluation of the in vitro potential anti-proliferative effects of treatments with the new compounds under study against solid tumor-derived cells, several compound-mediated cytotoxicity assays were performed on three adherent tumor standardized cell lines, and normal human endothelial cells, used as control: the MCF-7 human breast adenocarcinoma and SK-OV-3 human ovary adenocarcinoma cell lines were provided from European Collection of Authenticated Cell Cultures (ECACC), while LoVo, human colorectal adenocarcinoma cell line, and HUVEC human umbilical vein endothelial cells were purchased from American Type Culture Collection (ATCC).
(§3) Adherent cells were cultivated in DMEM/F12 medium added with 2 mM L-glutamine and 10% fetal bovine serum, 100 units/mL penicillin, 100 µg/mL streptomycin (Sigma Aldrich, St. Louis, MO, USA) and incubated at 37 °C in 5% CO2 humidified atmosphere. The stock solutions for cell treatments were prepared by dissolving the synthesized compounds in a minimum amount of DMSO. Working dilutions were prepared from the stock solutions in culture medium before each treatment assay. After 24 h, when cell cultures achieved around 70% confluence, treatments were applied for various periods of time with different concentrations of synthesized compounds or oncolytic drugs, used as positive controls.
(§4) Therefore, cell cultures treated with the new compounds or oncolytic drugs for 24 h or 48 h were further subjected to a colorimetric cell viability method, the MTS assay. The absorbance of probes was read, data were calculated, and percentages of cell viability were assessed.
(§5) The evaluation of the compound-induced cytotoxicity was made using the CellTiter 96 Aqueous One Solution Cell Proliferation Assay (Promega, Madison, WI, USA), a reagent that contains both MTS (3-(4,5-dimethylthiazol-2-yl)-5-(3-carboxymethoxyphenyl)-2-(4-sulfophenyl)-2H-tetrazolium, inner salt) and PES ([…], a cationic dye with high chemical stability that binds to MTS and forms a stable solution).
(§6) Briefly, 1.5 × 10^4 cancer or normal cells were cultured in 100 µL/well for 24 h. After the culture supernatants were discarded, cells were treated for additional 24 h or 48 h with increasing concentrations of new compounds or oncolytic drugs. Following the specific treatments, in each well a volume of 20 µL of coloring mixture reagent of MTS and PES was added, and then the plates were incubated with mild agitation every 20 min for 4 h at 37 °C. The color developed during incubation was spectrophotometrically quantified at λ = 492 nm using a Dynex ELISA reader (DYNEX Technologies—MRS, Chantilly, VA, USA).
(§7) Data were expressed as percentages of cell viability of the treated cells, and were calculated and compared to the untreated cells (considered 100% viable), using the formula:Cell viability (%) = (T − B)/(U − B) × 100 where T = absorbance of treated cells, U = absorbance of untreated cells, and B = absorbance of culture medium (blank), for λ = 492 nm.
(§8) The cell viability data were expressed as the mean values ± standard deviations (SD) of three different experiments (n = 3). […] Moreover, a parallel experiment was performed in the absence of cells, with all the concentrations of the compounds being tested for their potential interference with MTS reagents; then, their absorbance values were extracted during calculations.

Daphnia magna Straus = assay: Daphnia magna toxicity assay; format: in vivo; details: 48 h
Description: (§9) Young organisms of Daphnia magna were selected according to their size from a parthenogenetic culture maintained in an artificial medium for 24 h before the bioassay. The determination was conducted in tissue culture plates with 12 wells (Greiner Bio-One, Monroe, NC, USA), with 10 organisms in each well, and a final volume of 3 mL per sample [65, 66]. As a negative control, DMSO was used at a concentration of 1%. All compounds were tested at six different concentration levels, ranging from 12.5 to 500 μg/mL. All assessments were performed in duplicate.

[3] = Daphnia magna toxicity assay; format: in vivo; details: Daphnia magna, in vivo; 48 h
Description: as §9

[4] = system: SK-OV-3 ovary adenocarcinoma cells; assay: MTS cytotoxicity assay, SK-OV-3; format: cell-based; details: Homo sapiens; SK-OV-3, 400 μM, 24 h; read-out: cell viability
[5] = system: LoVo colon adenocarcinoma cells; assay: MTS cytotoxicity assay, LoVo; format: cell-based, human; details: Homo sapiens
Description: as §1, §2, §3, §4, §5, §6, §7, §8

[6] = system: LoVo colon adenocarcinoma cells; assay: MTS cytotoxicity assay, LoVo; format: cell-based; details: Homo sapiens, 400 μM, read-out: cell viability

In the case of `CCOC(=O)c1cc(CC)n2nc(-c3ccc(F)cc3)ccc12` [Compound 5e, Ethyl 7-ethyl-2-(4-fluorophenyl)pyrrolo[1,2-b]pyridazine-5-carboxylate], the “mitotic film / cell changes in root tips” value [1] is reported as “undulated cell walls and modified shaped nuclei; also recorded: mitoinhibition”, the IC50 ([2]; SK-OV-3, 24 h, read-out: IC50 Sk-OV-3 24 h) is reported as no less than 400 µM and the IC50 ([2]; SK-OV-3, 48 h, read-out: IC50 Sk-OV-3 48 h) is reported as no less than 400 µM. The “toxicity on Daphnia magna” value (Daphnia magna Straus) was “moderate toxicity”, the LC50 at 48 h [3] was 675 µM and the viability at 400 µM [4] was 87.5%. The IC50 ([5]; 24 h, read-out: IC50 LoVo 24 h) was no less than 400 µM, the IC50 ([5]; 48 h, read-out: IC50 LoVo 48 h) was no less than 400 µM and the viability at 400 µM ([6]; 24 h) was 82.2%. For the same compound, the viability at 400 µM ([6]; 48 h) was 67.4%.
